Molecules are shown by their SMILES. Active and inactive are the calls of the source. Cut-off read from the data, not from the text of the source: active = inhibition above about 50%; inactive = the rest.

The assay deals with Gag-Pol polyprotein (Human immunodeficiency virus type 1 group M subtype B (isolate HXB2)) (UniProt P04585). Kind of assay: RNase H inhibition, HIV 1 Gag Pol polyprotein, FRET biochemical assay, screening (AID 372). The conditions noted are these: HIV-1 RT RNase H, FRET RNA/DNA substrate fluorescence.
`Cc1cc(-c2ccco2)c(C#N)c(SCC(=O)c2ccc(O)c(O)c2)n1`: the IC50 (commonly the midpoint of a concentration-inhibition curve) was 1.4 µM. With `O=C1C(Cl)=C(NC(=O)c2ccccc2)C(=O)C(Cl)=C1NC(=O)c1ccccc1`, the IC50 was 4 µM. Take `Cc1sc(NC(=O)Cc2ccccc2)c(C(N)=O)c1C`: the IC50 was 8 µM. In the case of `CC1=C(C)CC(C(=O)Nc2ccc(N3C(=O)c4ccccc4C3=O)cc2)C(C(=O)O)C1` (stereo not given), the half-inhibitory concentration (IC50) was 100 µM.

Consider `O=C1C=CC(=NS(=O)(=O)c2ccc(Cl)c([N+](=O)[O-])c2)C=C1`, for which the IC50 is 1.5 µM.

For the compound `CCN1C(=O)/C(=C/c2ccoc2)C(=O)NC1=S`, the IC50 is 40 µM. Consider `CCOc1ccc(C2=CC(=O)C=CC2=O)cc1`, for which the IC50 was 0.9 µM. In the case of `O=C(O)C1Nc2c(Cl)cc(Cl)cc2C2C=CCC12` (stereo not given), the concentration for half-maximal inhibition (IC50) is 72 µM.

Take `COc1ccc(-c2nc3sc(-c4ccc(OC)cc4)nc3s2)cc1`: the IC50 was 1.9 µM. As for `O=C1NC(=O)/C(=C/c2ccc(-c3ccc(O)c(C(=O)O)c3)o2)S1`, the figure is 4.2 µM; as for `Cc1ccc(C(=O)NC(=S)Nc2ccc(-c3nc4ccccc4s3)cc2)cc1[N+](=O)[O-]`, 20 µM; as for `Cc1ccc(S(=O)(=O)/N=C2\C=C(Sc3ncn[nH]3)C(=O)c3ccccc32)cc1`, 1.3 µM. Take `O=C1NC(=S)S/C1=C/c1cccc(OCc2ccc(Cl)c(Cl)c2)c1`: the half-inhibitory concentration (IC50) was 4 µM. The value for `Cc1ccc(NC(=O)c2c(NC(=O)c3ccccc3F)sc3c2CCCCC3)cc1` was “inactive”; that for `O=C1NC(=S)N(c2ccccc2F)C(=O)/C1=C/c1ccc(I)o1` was 6.7 µM.

Values taken from PubChem BioAssay AID372 (MTDP, 2006).
